Reference: patent US4933104A, “Anthraquinone derivative as a dichroic dye for a liquid-crystal material, liquid-crystal material and an electrooptical device” (priority 1986, dated 1990)
Where “and” joins values, the source holds several entries; their conditions need not be identical. Equal entries are not always repeated.

Assays:
Type in all cases: physicochemical
[1] = negative dichroism S in a liquid-crystalline mixture; details: liquid-crystalline mixture ZK-807
Method: (§1) Table 1 given below lists the values of negative dichroism of the anthraquinone derivative of general formula /1/ for examples 1-30 in a liquid-crystalline mixture ZK-807; Table 2 illustrates physico-chemical characteristics, and Table 3--limiting solubility in liquid-crystalline mixtures (ZK-807, ZLI-1840, 3010, SP-586, ZK-1282) at 20° C.

[2] = λmax of the long-wave absorption band of the dye; details: Table 1 / Examples; several values = several maxima
Method: as §1

[3] = limiting solubility in liquid-crystalline mixtures at 20° C.; details: for Solubility (limiting), known derivatives: Table 6, derivatives of SU 1089084

| SMILES | negative dichroism S [1] | λmax [2] | Solubility (limiting) ([3]; ZK-807, 20° C.) | solubility exceeds the solubility of the known analogue ([3]; ratio to known derivative, No. 2, 7 and 6 of Table 3 vs No. 1, 5 and 6 of Table 6) | Solubility (limiting) ([3]; 3010, 20° C.) | Solubility (limiting) ([3]; ZLI-1840, 20° C.) | Solubility (limiting) ([3]; ZK-1282, 20° C.) | Solubility (limiting) ([3]; SP-586, 20° C.) | Solubility (limiting), known derivatives ([3]; ZK-807, 20° C.) | Solubility (limiting), known derivatives ([3]; ZLI-1840, 20° C.) |
| --- | --- | --- | --- | --- | --- | --- | --- | --- | --- | --- |
| CCCCCCc1ccc(C(=O)Nc2cc(CCCC)c(OC(=O)c3ccc(CCCCCC)cc3)c3c2C(=O)c2c(NC(=O)c4ccc(CCCCCC)cc4)cc(CCCC)c(OC(=O)c4ccc(CCCCCC)cc4)c2C3=O)cc1 [Compound 7] | -0.26 | 434 nm and 455 nm | 5.0 mass % | 10 times |  |  |  |  |  |  |
| CCCCc1ccc(C(=O)Nc2cc(CCCC)c(O)c3c2C(=O)c2c(NC(=O)c4ccc(CCCC)cc4)cc(CCCC)c(OC(=O)c4ccc(CCCC)cc4)c2C3=O)cc1 [Compound 18, 1,8-bis-(4-butylbenzamido)-4-(4-butylbenzoyloxy)-3,6-dibutyl-5-oxyanthraquinone] | -0.31 | 534 nm | 2.7 mass % |  | 0.7 mass % |  |  |  |  |  |
| CCCCCc1ccc(-c2ccc(C(=O)Nc3ccc(NCCCC)c4c3C(=O)c3ccccc3C4=O)cc2)cc1 [No. 2, Table 6, reference compound] |  |  |  |  |  |  |  |  | 0.9 mass % | 0.5 mass % |
| CCCCCCc1ccc(C(=O)Nc2cc(CCCCC)c(O)c3c2C(=O)c2c(NC(=O)c4ccc(CCCCCC)cc4)cc(CCCCC)c(OC(=O)c4ccc(CCCCCC)cc4)c2C3=O)cc1 [Compound 26] | -0.31 | 542 nm | 2.9 mass % |  | 1.0 mass % | 1.1 mass % | 0.7 mass % |  |  |  |
| CCCCCc1cc(NC(=O)c2ccc(CCCC)cc2)c2c(c1O)C(=O)c1c(OC(=O)c3ccc(CCCC)cc3)c(CCCCC)cc(NC(=O)c3ccc(CCCC)cc3)c1C2=O [Compound 25] | -0.30 | 540 nm | 3.0 mass % |  | 0.9 mass % | 1.0 mass % |  |  |  |  |
| CCCCc1ccc(C(=O)Nc2ccc(OC(=O)c3ccc(CCCC)cc3)c3c2C(=O)c2c(NC(=O)c4ccc(CCCC)cc4)cc(C)c(OC(=O)c4ccc(CCCC)cc4)c2C3=O)cc1 [Compound 3, 1,8Bis-(4-butylbenzamido)-4,5-bis-(4-butylbenzoyloxy)-3-methylanthraquinone] | -0.34 | 465 nm | 5.0 mass % |  | 1.1 mass % | 1.0 mass % |  | 2.0 mass % |  |  |
| CCCCCCCCc1ccc(-c2ccc(C(=O)Nc3ccc(NCCCC)c4c3C(=O)c3ccccc3C4=O)cc2)cc1 [No. 1, Table 6, reference compound] |  |  |  |  |  |  |  |  | 0.8 mass % | 0.4 mass % |
| CCCCCCCCNc1cc(CCCC)c(NC(=O)c2ccc(-c3ccc(CCCCCCCC)cc3)cc2)c2c1C(=O)c1ccccc1C2=O [Compound 1] |  |  | 2.0 mass % |  |  |  |  |  |  |  |

Further lines, results first:

| negative dichroism S [1] | λmax [2] | Solubility (limiting) ([3]; ZK-807, 20° C.) | solubility exceeds the solubility of the known analogue ([3]; ratio to known derivative, No. 2, 7 and 6 of Table 3 vs No. 1, 5 and 6 of Table 6) | Solubility (limiting) ([3]; 3010, 20° C.) | Solubility (limiting) ([3]; ZLI-1840, 20° C.) | Solubility (limiting) ([3]; ZK-1282, 20° C.) | Solubility (limiting) ([3]; SP-586, 20° C.) | Solubility (limiting), known derivatives ([3]; ZK-807, 20° C.) | Solubility (limiting), known derivatives ([3]; ZLI-1840, 20° C.) | SMILES |
| --- | --- | --- | --- | --- | --- | --- | --- | --- | --- | --- |
| -0.38 | 475 nm | 9.0 mass % |  | 9.0 mass % | 7.7 mass % |  |  |  |  | CCCCCC1CCC(c2ccc(C(=O)Nc3cc(CCCC)c(OC(=O)C4CCC(CCCC)CC4)c4c3C(=O)c3c(NC(=O)c5ccc(C6CCC(CCCCC)CC6)cc5)cc(CCCC)c(OC(=O)C5CCC(CCCC)CC5)c3C4=O)cc2)CC1 (stereo not shown) [Compound 9] |
| -0.38 | 466 nm | 11.0 mass % |  | 2.6 mass % | 5.7 mass % | 1.8 mass % |  |  |  | CCCCCC1CCC(c2ccc(C(=O)Nc3cc(CCCC)c(OC(=O)c4ccc(C5CCC(CCCCC)CC5)cc4)c4c3C(=O)c3c(NC(=O)c5ccc(C6CCC(CCCCC)CC6)cc5)cc(CCCC)c(OC(=O)c5ccc(C6CCC(CCCCC)CC6)cc5)c3C4=O)cc2)CC1 (stereo not shown) [Compound 8] |
| -0.32 | 563 nm and 606 nm | 1.0 mass % |  | 1.0 mass % | 1.0 mass % | 1.0 mass % |  |  |  | CCCCC[C@H]1CC[C@H](c2ccc(C(=O)Nc3cc(CCCC)c(O)c4c3C(=O)c3c(NC(=O)c5ccc([C@H]6CC[C@H](CCCCC)CC6)cc5)cc(CCCC)c(O)c3C4=O)cc2)CC1 [Compound 29, 1,8-Bis-4-(trans-4-amylcyclohexyl)benzamido-3,6-dibutyl-4,5-dioxyanthraquinone] |
| -0.37 | 542 nm |  |  | 3.3 mass % | 3.0 mass % | 2.7 mass % |  |  |  | CCCCCC1CCC(c2ccc(C(=O)Nc3cc(CCCC)c(O)c4c3C(=O)c3c(NC(=O)c5ccc(C6CCC(CCCCC)CC6)cc5)cc(CCCC)c(OC(=O)C5CCC(CCCC)CC5)c3C4=O)cc2)CC1 (stereo not shown) [Compound 21] |
| -0.38 | 545 nm | 1.1 mass % |  | 2.0 mass % | 1.4 mass % | 1.5 mass % | 1.2 mass % |  |  | CCCCCC1CCC(c2ccc(C(=O)Nc3cc(CCCC)c(O)c4c3C(=O)c3c(NC(=O)c5ccc(C6CCC(CCCCC)CC6)cc5)cc(CCCC)c(OC(=O)CCC)c3C4=O)cc2)CC1 (stereo not shown) [Compound 22] |
| -0.32 | 458 nm and 470 nm | 9.5 mass % |  | 4.46 mass % | 3.8 mass % | 4.0 mass % | 3.78 mass % |  |  | CCCCCc1cc(NC(=O)c2ccc(CCCC)cc2)c2c(c1OC(=O)c1ccc(CCCC)cc1)C(=O)c1c(OC(=O)c3ccc(CCCC)cc3)c(CCCCC)cc(NC(=O)c3ccc(CCCC)cc3)c1C2=O [Compound 14] |
| -0.33 | 534 nm | 1.2 mass % |  | 0.75 mass % | 0.7 mass % |  |  |  |  | CCCCCCC1CCC(c2ccc(C(=O)Nc3cc(CCCC)c(O)c4c3C(=O)c3c(NC(=O)c5ccc(C6CCC(CCCCCC)CC6)nc5Cl)cc(CCCC)c(OC(=O)c5ccc(C6CCC(CCCCCC)CC6)nc5Cl)c3C4=O)c(Cl)n2)CC1 (stereo not shown) [Compound 20] |
| -0.35 | 473 nm | 5.2 mass % |  | 1.82 mass % |  |  |  |  |  | CCCCCC1CCC(c2ccc(C(=O)Nc3cc(CCCC)c(OC(=O)CCC)c4c3C(=O)c3c(NC(=O)c5ccc(C6CCC(CCCCC)CC6)cc5)cc(CCCC)c(OC(=O)CCC)c3C4=O)cc2)CC1 (stereo not shown) [Compound 12] |
| -0.36 | 542 nm | 1.7 mass % |  | 2.0 mass % | 2.6 mass % |  |  |  |  | CCCCc1cc(NC(=O)c2ccc(C3CCC(CCCC)CC3)cc2)c2c(c1O)C(=O)c1c(OC(=O)CCC)c(CCCC)cc(NC(=O)c3ccc(C4CCC(CCCC)CC4)cc3)c1C2=O (stereo not shown) [Compound 23] |
| -0.34 | 566 nm and 608 nm |  |  |  |  |  |  |  |  | CCCCc1cc(NC(=O)c2ccc(C3CCC(CCCC)CC3)cc2)c2c(c1O)C(=O)c1c(O)c(CCCC)cc(NC(=O)c3ccc(C4CCC(CCCC)CC4)cc3)c1C2=O (stereo not shown) [Compound 30] |
